Assay results published in US20140288044A1, “COMPOSITIONS AND THERAPEUTIC USES OF IKK-RELATED KINASE EPSILON AND TANKBINDING KINASE 1 INHIBITORS” (Alzheimer's Institute of America, Inc., priority 2011, published 2014).
Read-outs that look alike come from different tables or passages of the source.

Biological target: T1, IKKε (Homo sapiens, UniProt Q14164)
T1 construct: His-tag (in-house Sf9 preparation) or GST-tag (purchased Invitrogen preparation); these are alternatives, not both on one protein; host or cells: Sf9 cells
T1 sequence (Q14164 1-716): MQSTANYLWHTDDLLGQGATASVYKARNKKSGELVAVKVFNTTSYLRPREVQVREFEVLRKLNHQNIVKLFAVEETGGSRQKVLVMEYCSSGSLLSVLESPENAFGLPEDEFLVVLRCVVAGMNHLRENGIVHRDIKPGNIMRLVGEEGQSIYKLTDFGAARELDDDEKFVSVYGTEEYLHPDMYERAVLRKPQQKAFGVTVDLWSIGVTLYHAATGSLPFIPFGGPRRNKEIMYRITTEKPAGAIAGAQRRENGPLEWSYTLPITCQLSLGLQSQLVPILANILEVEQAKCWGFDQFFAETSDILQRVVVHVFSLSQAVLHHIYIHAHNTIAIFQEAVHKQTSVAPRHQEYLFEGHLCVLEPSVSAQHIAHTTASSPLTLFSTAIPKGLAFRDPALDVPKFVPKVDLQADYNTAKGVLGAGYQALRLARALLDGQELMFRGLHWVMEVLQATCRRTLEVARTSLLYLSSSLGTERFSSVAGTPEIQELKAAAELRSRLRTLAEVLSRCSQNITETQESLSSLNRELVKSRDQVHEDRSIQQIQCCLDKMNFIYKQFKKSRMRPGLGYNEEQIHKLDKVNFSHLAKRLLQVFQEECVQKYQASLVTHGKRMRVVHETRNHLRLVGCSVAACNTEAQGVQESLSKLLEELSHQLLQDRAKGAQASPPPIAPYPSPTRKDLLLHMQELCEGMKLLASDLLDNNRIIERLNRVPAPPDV
Assay: In-vitro IKKε kinase assay (radiolabelled ATP, filterplate)
Type: biochemical
Experimental: IKKε enzyme was produced as a His-tag fusion in Sf9 cells or purchased as a GST-tag fusion (Invitrogen, Carlsbad, Calif.). TBK1 enzyme was produced as a His-tag fusion in Sf9 cells. Kinase reactions were carried out in reaction buffer using myelin basic protein (Millipore, Ballerica, Mass.), casein or dephosphorylated casein (Sigma, St. Louis, Mo.) as substrate at an ATP concentration equal to twice the Km,ATP value for each enzyme, corresponding to 32 μM ATP for IKKε and 60 μM ATP for TBK1. Radiolabelled [γ^33]ATP (PerkinElmer, Waltham, Mass.) in the amount of […] (IKKe, “normal”) or 0.7 μCi (IKKε, “sensitized”) or 1.25 μCi (TBK1) was added to each assay. Final enzyme concentrations were 0.1 or 0.015 μg/ml (IKKε) and 0.1 or 0.02 μg/ml (TBK1) for the “normal” and “sensitized” assay, respectively, and “sensitized” assays were conducted using only dephosphorylated casein as substrate. Test compounds (or DMSO solvent as a control) were added prior to initiation of the reactions. Reactions were terminated after 30-45 minutes by adding 3% phosphoric acid. Terminated reactions were transferred to P-81 cellulose phosphate filterplates (Whatman, Inc., Piscataway, N.J.) and washed with 1% phosphoric acid on a vacuum apparatus. After air drying, scintillant (PerkinElmer, Waltham, Mass.) was added and the plates were read on a PerkinElmer TopCount NXT instrument. Counts were normalized to DMSO controls after background subtraction.

[1] = in-vitro IKKε kinase inhibition assays, given as 0.005 μM (5 nM), read-out: IKKε kinase inhibitory activity (IC50 value)
[2] = "sensitized" assay, read-out: IC50, inhibition of the kinase activity of IKKε

N#Cc1cc(-c2ccnc(Nc3cncc(C(=O)NCCO)c3)n2)ccc1OC1CCOCC1 [Example Compound 13, 5-({4-[3-Cyano-4-(tetrahydro-2H-pyran-4-yloxy)phenyl]pyrimidin-2-yl}amino)-N-(2-hydroxyethyl)pyridine-3-carboxamide]
IC50 [1]: < 5 nM

N#Cc1cc(-c2ccnc(Nc3ccc(-n4ccnc4)nc3)n2)ccc1OC1CCOCC1 [Example Compound 200, 5-(2-{[6-(1H-Imidazol-1-yl)pyridin-3-yl]amino}pyrimidin-4-yl)-2-(tetrahydro-2H-pyran-4-yloxy)benzonitrile]
IC50 [2]: < 5 nM

COC1CN(c2cc(Nc3nccc(-c4ccc(NC(=O)C5CC5)c(C#N)c4)n3)ccn2)C1 [Example Compound 142, N-[2-Cyano-4-(2-{[2-(3-methoxyazetidin-1-yl)pyridin-4-yl]amino}pyrimidin-4-yl)phenyl]cyclopropanecarboxamide]
IC50 [2]: < 5 nM | IC50 [1]: < 5 nM

N#Cc1cc(-c2ccnc(Nc3ccc(/C=C/CN4CCOCC4)nc3)n2)ccc1OC1CCOCC1 [Example Compound 190, 5-[2-({6-[(1E)-3-(Morpholin-4-yl)prop-1-en-1-yl]pyridin-3-yl}amino)pyrimidin-4-yl]-2-(tetrahydro-2H-pyran-4-yloxy)benzonitrile]
IC50 [2]: < 5 nM

CC(c1ccc(Nc2nccc(-c3ccc(OC4CCOCC4)c(C#N)c3)n2)cn1)N1CC(O)C1 (stereo not shown) [Example Compound 214, 5-[2-({6-[1-(3-Hydroxyazetidin-1-yl)ethyl]pyridin-3-yl}amino)pyrimidin-4-yl]-2-(tetrahydro-2H-pyran-4-yloxy)benzonitrile]
IC50 [2]: < 5 nM

CCN(CC)c1ccc(Nc2nccc(-c3ccc(OC4CCOCC4)c(C#N)c3)n2)cn1 [Example Compound 9, 5-(2-{[6-(Diethylamino)pyridin-3-yl]amino}pyrimidin-4-yl)-2-(tetrahydro-2H-pyran-4-yloxy)benzonitrile]
IC50 [2]: < 5 nM | IC50 [1]: < 5 nM

COc1cncc(Nc2nccc(-c3ccc(OC4CCOCC4)c(C#N)c3)n2)c1 [Example Compound 27, 5-{2-[(5-Methoxypyridin-3-yl)amino]pyrimidin-4-yl}-2-(tetrahydro-2H-pyran-4-yloxy)benzonitrile]
IC50 [2]: < 5 nM | IC50 [1]: < 5 nM

COCCNCc1cncc(Nc2nccc(-c3ccc(OC4CCOCC4)c(C#N)c3)n2)c1 [Example Compound 22, 5-{2-[(5-{[(2-Methoxyethyl)amino]methyl}pyridin-3-yl)amino]pyrimidin-4-yl}-2-(tetrahydro-2H-pyran-4-yloxy)benzonitrile]
IC50 [1]: < 5 nM

CN(C)c1ccc(Nc2nccc(-c3ccc(OC4CCOCC4)c(C#N)c3)n2)cn1 [Example Compound 10, 5-(2-{[6-(Dimethylamino)pyridin-3-yl]amino}pyrimidin-4-yl)-2-(tetrahydro-2H-pyran-4-yloxy)benzonitrile]
IC50 [2]: < 5 nM | IC50 [1]: < 5 nM

COCCNc1cc(Nc2nccc(-c3ccc(OC4CCOCC4)c(C#N)c3)n2)ccn1 [Example Compound 38, 5-[2-({2-[(2-Methoxyethyl)amino]pyridin-4-yl}amino)pyrimidin-4-yl]-2-(tetrahydro-2H-pyran-4-yloxy)benzonitrile]
IC50 [1]: < 5 nM

CN(C)c1ccc(-c2ccc(Nc3nccc(-c4ccc(OC5CCOCC5)c(C#N)c4)n3)cn2)cn1 [Example Compound 81, 5-(2-{[6′-(Dimethylamino)-2,3′-bipyridin-5-yl]amino}pyrimidin-4-yl)-2-(tetrahydro-2H-pyran-4-yloxy)benzonitrile]
IC50 [2]: < 5 nM | IC50 [1]: < 5 nM

COC1CN(c2cc(Nc3nccc(-c4ccc(OCC5CC5)c(C#N)c4)n3)ccn2)C1 [Example Compound 248, 2-(Cyclopropylmethoxy)-5-(2-{[2-(3-methoxyazetidin-1-yl)pyridin-4-yl]amino}pyrimidin-4-yl)benzonitrile]
IC50 [2]: < 5 nM

COc1cc(Nc2nccc(-c3ccc(OC4CCN(C(=O)CO)CC4)c(C#N)c3)n2)ccn1 [Example Compound 222, 2-{[1-(Hydroxyacetyl)piperidin-4-yl]oxy}-5-{2-[(2-methoxypyridin-4-yl)amino]pyrimidin-4-yl}benzonitrile]
IC50 [2]: < 5 nM

C[C@@H](O)C(=O)N(C)Cc1ccc(Nc2nccc(-c3ccc(OC4CCOCC4)c(C#N)c3)n2)cn1 [Example Compound 198, (2R)-N-{[5-({4-[3-Cyano-4-(tetrahydro-2H-pyran-4-yloxy)phenyl]pyrimidin-2-yl}amino)pyridin-2-yl]methyl}-2-hydroxy-N-methylpropanamide]
IC50 [2]: < 5 nM

COC1CN(C(=O)c2csc(Nc3nccc(-c4ccc(OC5CCOCC5)c(C#N)c4)n3)n2)C1 [Example Compound 104, 5-[2-({4-[(3-Methoxyazetidin-1-yl)carbonyl]-1,3-thiazol-2-yl}amino)pyrimidin-4-yl]-2-(tetrahydro-2H-pyran-4-yloxy)benzonitrile]
IC50 [2]: < 5 nM | IC50 [1]: < 5 nM

N#Cc1cc(-c2ccnc(Nc3ccc(CNC(=O)N4CCOCC4)nc3)n2)ccc1OC1CCOCC1 [Example Compound 67, N-{[5-({4-[3-Cyano-4-(tetrahydro-2H-pyran-4-yloxy)phenyl]pyrimidin-2-yl}amino)pyridin-2-yl]methyl}morpholine-4-carboxamide]
IC50 [1]: < 5 nM

CN(Cc1ccc(Nc2nccc(-c3ccc(OC4CCOCC4)c(C#N)c3)n2)cn1)C(=O)C(C)(C)O [Example Compound 56, N-{[5-({4-[3-Cyano-4-(tetrahydro-2H-pyran-4-yloxy)phenyl]pyrimidin-2-yl}amino)pyridin-2-yl]methyl}-2-hydroxy-N,2-dimethylpropanamide]
IC50 [1]: < 5 nM

CC(O)c1ccc(Nc2nccc(-c3ccc(OC4CCOCC4)c(C#N)c3)n2)cn1 (stereo not shown) [Example Compound 61, 5-(2-{[6-(1-Hydroxyethyl)pyridin-3-yl]amino}pyrimidin-4-yl)-2-(tetrahydro-2H-pyran-4-yloxy)benzonitrile]
IC50 [1]: < 5 nM

COC(=O)c1ccc(Nc2nccc(-c3ccc(OC4CCOCC4)c(C#N)c3)n2)cn1 [Example Compound 33, Methyl 5-({4-[3-cyano-4-(tetrahydro-2H-pyran-4-yloxy)phenyl]pyrimidin-2-yl}amino)pyridine-2-carboxylate]
IC50 [2]: < 5 nM | IC50 [1]: < 5 nM

C[C@H](O)C(=O)N1CCC(Oc2ccc(-c3ccnc(Nc4ccc(N5CCOCC5)nc4)n3)cc2C#N)CC1 [Example Compound 127, 2-({1-[(2S)-2-Hydroxypropanoyl]piperidin-4-yl}oxy)-5-(2-{[6-(morpholin-4-yl)pyridin-3-yl]amino}pyrimidin-4-yl)benzonitrile]
IC50 [2]: < 5 nM | IC50 [1]: < 5 nM

N#Cc1cc(-c2ccnc(Nc3ccc(C(=O)N4CCC4)nc3)n2)ccc1OC1CCOCC1 [Example Compound 30, 5-(2-{[6-(Azetidin-1-ylcarbonyl)pyridin-3-yl]amino}pyrimidin-4-yl)-2-(tetrahydro-2H-pyran-4-yloxy)benzonitrile]
IC50 [2]: < 5 nM | IC50 [1]: < 5 nM

N#Cc1cc(-c2ccnc(Nc3ccnc(N4CCC[C@H]4CO)c3)n2)ccc1OC1CCOCC1 [Example Compound 40, 5-[2-({2-[(2S)-2-(Hydroxymethyl)pyrrolidin-1-yl]pyridin-4-yl}amino)pyrimidin-4-yl]-2-(tetrahydro-2H-pyran-4-yloxy)benzonitrile]
IC50 [2]: < 5 nM | IC50 [1]: < 5 nM

CC(=O)NCc1ccc(Nc2nccc(-c3ccc(OC4CCOCC4)c(C#N)c3)n2)cn1 [Example Compound 68, N-{[5-({4-[3-Cyano-4-(tetrahydro-2H-pyran-4-yloxy)phenyl]pyrimidin-2-yl}amino)pyridin-2-yl]methyl}acetamide]
IC50 [1]: < 5 nM

CN(Cc1ccc(Nc2nccc(-c3ccc(OC4CCOCC4)c(C#N)c3)n2)cn1)C(=O)CO [Example Compound 195, N-{[5-({4-[3-Cyano-4-(tetrahydro-2H-pyran-4-yloxy)phenyl]pyrimidin-2-yl}amino)pyridin-2-yl]methyl}-2-hydroxy-N-methylacetamide]
IC50 [2]: < 5 nM
